We go through four substances from patent US7550437B2, “Compositions for preventing and treating digestive organs diseases” (Fuso Pharmaceutical Industries, Ltd., priority 2000, dated 2009).

No end group written: not given here.

In experiment [1] the test system is gastric acid secretion accelerated by carbachol. As to the kind of experiment: Carbachol-induced gastric acid secretion in pylorus-ligated rats. The format is in vivo, rat. As to conditions: carbachol 60 μg/kg s.c., amastatin 2.5 μmol/kg i.v., FIG. 1. As for the experimental part: In an experiment, male Wistar rats at 5 weeks of age were used. After each animal was pre-bred for one week under the circumstance of a room temperature of 23±2° C., the humidity of 50±5%, and the light-and-darkness cycle (light term: from 07:00 to 19:00) of 12 hours, each animal was subjected to the experiment. Water and solid feed were supplied freely during the pre-breeding period and the experiment period.
Moreover, the number of animals used in the experiment was 4-14 animals in all cases, and the results were shown by Mean±Standard Error. The significant difference test was performed by Tukey's multiple comparison test.
A rat was anesthetized with ether after 18-24 hours of fasting, and an abdomen was incised by about 1 cm below a lower end of xiphoid sternum. Duodenum was pinched out of the opened abdominal hole, a part joining pylorus and duodenum was ligated, and the incised abdomen was sutured. After 30 minutes, the rat was exsanguinated to kill, the stomach was isolated, and gastric juice was collected. After the collected gastric juice was filtered, the acidity in the gastric juice was measured by a titration method. […]

Experiment [2] concerns rat gastric mucosal cells. Nature of the experiment: Mucin secretion from rat gastric mucosal cells in vivo (galactose in gastric juice). As to conditions: amastatin 2.5 μmol/kg i.v., FIG. 2. On the procedure:
The gastric pylorus was ligated by the same procedure as described above. Amastatin (2.5 μmol/kg) was administered intravenously immediately after the ligation, and SLp-NH2, LSp-NH2 or tcLP-NH2 was administered intravenously at 1 minute after administration of amastatin. 30 minutes after ligation, the rats was exsanguinated to kill, the stomach was isolated, and the gastric juice was collected. The collected sample of gastric juice was centrifuged at 10000×g for 30 min, and the supernatant was subjected to ultrafiltration with Millipore MC FREE (MW10000), followed by lyophilization. 2M TFA was added to the lyophilized sample, which was hydrolyzed under the conditions at 100° C. for 4 hours. Centrifugal separation was then performed and the supernatant was evaporated to dryness. 200 μL of 0.1 M Tris-HCl was added to the evaporated and dried sample to dissolve it. After 150 μL of a reaction solution containing galactose oxidase (1U), peroxidase (0.5 mU) and HPPA (0.25 μmol) was added to 50 μL of the sample and the mixture was incubated at 37° C. for 30 minutes, an amount of galactose was measured at an excitation wavelength of 320 nm and an fluorescence wavelength of 405 nm.

Experiment [3] concerns the target T1, PAR-2 (Homo sapiens, UniProt P55085).
T1 sequence (P55085 26-397): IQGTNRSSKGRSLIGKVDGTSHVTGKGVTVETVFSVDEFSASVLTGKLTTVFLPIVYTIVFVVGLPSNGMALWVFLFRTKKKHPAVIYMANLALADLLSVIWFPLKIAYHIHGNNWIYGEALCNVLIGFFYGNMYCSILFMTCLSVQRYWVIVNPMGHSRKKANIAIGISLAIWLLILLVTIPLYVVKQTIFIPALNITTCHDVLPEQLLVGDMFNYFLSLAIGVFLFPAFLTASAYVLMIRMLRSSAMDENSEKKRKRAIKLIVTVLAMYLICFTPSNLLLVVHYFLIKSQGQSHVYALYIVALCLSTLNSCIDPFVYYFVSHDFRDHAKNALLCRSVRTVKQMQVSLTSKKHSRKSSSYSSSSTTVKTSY
As to conditions: literature statement; cited from earlier work.

Experiment [4] deals with lesion in gastric mucosa by hydrochloric acid-ethanol. As to the kind of experiment: Hydrochloric acid-ethanol-induced gastric mucosa lesion. It is filed as in vivo, rat. As to conditions: 0.25 and 0.5 μmol/kg i.v. 5 min before 60% ethanol containing 150 mM hydrochloric acid p.o.; amastatin 2.5 μmol/kg; FIG. 4. As for the experimental part: (§1) Preparation of ethanol- and hydrochloric acid-ethanol-induced gastric mucosa lesion was performed according to the method of Robert et al. (Robert, A. et al., Gastroenteral, 77, 433-443, 1979). That is, after the rats were fasted for 18 to 24 hours, 1 mL of 75% ethanol or 60% ethanol containing 150 mM hydrochloric acid was administered orally. Rats were exsanguinated to kill after 60 min and their stomaches were isolated. The isolated stomach was incised along with greater curvature, washed and fixed with 10% formaldehyde, and an area of gastric mucosa lesion was measured using Image analyzing software, Mac acpect (Mitani corporation, Chiba prefecture). SLp-NH2 was administered intravenously at 5 minutes before administration of 75% ethanol or 60% ethanol containing 150 mM hydrochloric acid. Amastatin (2.5 μmol/kg) was administered at 1 minute before administration of SLp-NH2.

In experiment [5] the test system is gastric mucosa lesion by ethanol. As to the kind of experiment: Ethanol-induced gastric mucosa lesion. It is filed as in vivo, rat. As to conditions: 0.25 and 0.5 μmol/kg i.v. 5 min before 75% ethanol p.o.; amastatin 2.5 μmol/kg; FIG. 3. As for the experimental part:
as §1

In experiment [6] the target is T2, human PAR-1 (Homo sapiens, UniProt P25116).
T2 sequence (P25116 22-425): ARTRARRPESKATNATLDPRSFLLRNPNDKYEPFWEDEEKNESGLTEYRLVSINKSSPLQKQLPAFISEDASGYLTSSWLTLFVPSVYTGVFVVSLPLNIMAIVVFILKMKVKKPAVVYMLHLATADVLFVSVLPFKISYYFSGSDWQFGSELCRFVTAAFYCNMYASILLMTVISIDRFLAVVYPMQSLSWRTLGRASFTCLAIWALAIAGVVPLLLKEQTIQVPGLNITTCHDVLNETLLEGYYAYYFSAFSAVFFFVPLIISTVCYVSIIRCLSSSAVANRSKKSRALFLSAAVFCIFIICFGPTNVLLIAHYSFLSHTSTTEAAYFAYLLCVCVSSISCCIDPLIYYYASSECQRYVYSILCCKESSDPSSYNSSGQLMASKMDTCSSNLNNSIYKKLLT
As to conditions: literature statement; cited from earlier work.

“Leu-Ser-Ile-Gly-Arg-Leu-NH2 (LSIGRL-NH2) [LSp-NH2, control peptide for SLp-NH2]”: in experiment [1] (5 μmol/kg i.v.), the “effect on gastric acid secretion accelerated by carbachol (amount of secreted gastric acid)” value is “did not affect”. In addition, the “effect on mucin secretion from rat gastric mucosal cells” value (“effect on mucin secretion” for short) in experiment [2] (i.v., dose not given) is reported as “did not affect mucin secretion”. The “agonist activity on PAR-2” value in experiment [3] is “inactive substance”.
Regarding “Ser-Leu-Ile-Gly-Arg-Leu-NH2 (SLIGRL-NH2) [SLp-NH2]”, the “effect on gastric mucosa lesion (area) by hydrochloric acid-ethanol” value in experiment [4] is “the protective effect was shown”. Besides, in experiment [1] (1.25 to 5 μmol/kg i.v.), the “effect on gastric acid secretion accelerated by carbachol (amount of secreted gastric acid)” value is reported as “inhibited dose-dependently”. Further, in experiment [5], the “effect on gastric mucosa lesion (area) by ethanol” value is given as “showed the protective effect”. Moreover, the “effect on mucin secretion” value in experiment [2] (0.02 to 5 μmol/kg i.v.) is on record as “accelerated dose-dependently”.
“Ser-Phe-Leu-Leu-Arg-NH2 (SFLLR-NH2) [SFp-NH2]”: the “agonist activity on human PAR-1” value in experiment [6] is “agonist activity on human PAR-1”. In addition, the “agonist activity on PAR-2” value in experiment [3] is reported as “week agonist activity on PAR-2”.
“trans-cinnamoyl-Leu-Ile-Gly-Arg-Leu-ornithine-NH2 [tcLp-NH2]”: the “effect on mucin secretion” value in experiment [2] (i.v., dose not given) is reported as “also accelerated the mucin secretion”. Besides, the “agonist activity on PAR-2” value in experiment [3] is listed as “specifically activate PAR-2”.
